Source: patent US20220370636A1, “NICOTINAMIDE ADENINE DINUCLEOTIDE ACTIVATOR AND USE THEREOF” (University of South Florida, priority 2021, published 2022)

Tests used:
db/db mice [1] = assay: Skeletal muscle histology, TEM, SDH staining and mtDNA copy number in db/db mice; type: in vivo
Protocol: Haematoxylin and eosin staining. The tibialis anterior (TA) muscle was dissected from the mice, and embedded in optimal cutting temperature (OCT), frozen in isopentane chilled in liquid nitrogen and stored at […]. […] Images were obtained at ×10 and ×20 magnifications with the Olympus IX73 inverted microscope and were quantified using CellSens Standard software (Olympus Soft Imaging Solution, USA).
Transmission electron microscopy. The EDL muscles were fixed with 2.5% glutaraldehyde in 0.1 M sodium phosphate buffer for 2 h at RT, and overnight at 4° C., followed by washing in buffer and fixation with 1% osmium tetroxide in buffer for 2 h at 4° C. After rinsing in buffer, the samples were then dehydrated in ethanol and acetone at RT and infiltrated in acetone:pure resin (Embed812) mix in vacuum with desiccant for 1 h and in pure resin for 4 h and embedded in the embedding mix. Polymerization of the embedding mix was carried out overnight at 70° C. in the embedding moulds. Semithin (1 μm) and ultrathin (70 nm) sections were cut using a Reichert Ultracut microtome machine. The sections were then stained with 2% uranyl acetate and contrasted with lead citrate as per standard protocol. Images were taken at ×15,000, ×30,000, and ×50,000 magnifications with a JOEL1400 transmission electron microscope for the analysis of myofibre diameter and the mitochondrial area.
Mitochondrial DNA (mtDNA) copy number. Total DNA was extracted from gastrocnemius (GAS) muscle using DNeasy Blood and Tissue kit (Qiagen, Md., USA) according to the manufacturer's protocol. The quantitative real-time PCR (qPCR) analysis of the mtDNA/nDNA was performed using iTaq Universal SYBR green supermix (Bio-Rad Laboratories, CA, USA). The mouse 16S was used as the mitochondrial gene and HK2 was used as the nuclear gene to obtain the mitochondrial copy number.
Succinate dehydrogenase staining. The 10 μm thick transverse cryosections of TA muscles were cut at the mid-belly region using Leica CM 1860 AgProtect cryostat machine. Briefly, the tissue sections were air-dried for 45 minutes, and incubated in 50 mM sodium succinate dibasic hexahydrate and 1.25 mM nitroblue tetrazolium in 0.1 M phosphate buffer (Sigma-Aldrich, MO, USA) for 30 min. The reaction was stopped washing in deionized water, and the sections were dehydrated in a series of graded ethanol and cleared using xylene. The sections were then mounted with DPX mountant, and the images were captured at ×20 magnification of the Olympus IX73 inverted microscope using CellSens Standard software (Olympus Soft Imaging Solution, USA) and the succinate dehydrogenase (SDH) positive myofibres were quantified with ImageJ software.

db/db mice [2] = assay: LC-MS/MS lipidomics of gastrocnemius muscle in db/db mice; type: in vivo
Protocol: Lipidomics. The lipidomic profiling of GAS muscle was performed using a liquid chromatography-tandem mass spectrometry (LC-MS/MS) method as described previously. Briefly, the GAS muscle samples were collected, and flash frozen in liquid nitrogen. Around 50-100 mg of the muscle tissue was homogenized using a bead-beating method, then the obtained supernatant was further cleaned and concentrated by solid phase extraction. The extracted LMs samples were dried under vacuum and stored at […] for future LC-MS/MS analysis. The dried extracts were reconstituted with 50 μL of methanol, and 10 μL was injected into LC-MS/MS to observe lipid profiles in GAS muscles. The LC-MS/MS system components were from Shimadzu Scientific Instruments Inc. (Columbia, Md., USA). All analyses and data processing were completed with the use of Shimadzu Lab Solutions V5.91 software (Shimadzu Scientific, Tokyo, Japan).

db/db mice [3] = assay: qPCR gene expression of gastrocnemius muscle and MyHC1 myofibre staining in db/db mice; type: in vivo
Protocol: Quantitative real-time PCR. Total RNA was isolated from GAS muscle using the Exiqon miRCURY RNA Isolation kit (Exiqon, Mass., USA) according to the manufacturer's protocol. Complimentary DNA from total RNA was synthesized with iScript cDNA synthesis kit (Bio-Rad Laboratories, CA, USA) and quantitative real-time PCR (qPCR) analysis was performed on key transcriptome targets using iTaq Universal SYBR Green Supermix (Bio-Rad Laboratories, CA, USA). The cDNA synthesis and qPCR procedures were performed as described previously. The mouse HPRT gene was used as an internal control.
Myofibre staining. The 10 μm thick transverse serial cryosections of TA muscles were cut at the mid-belly region using Microm cryostat ma-chine. Briefly, the tissue sections were blocked with 0.2% bovine serum albumin (BSA) and 10% normal sheep serum (NSS) in PBS-Triton X100 (PBST) for 1 h at RT. All washes were carried out with PBS. Following washing, the sections were incubated in 5 μg/mL of mouse monoclonal primary antibody against myosin heavy chain type-1 (A4.840s DSHB, IA, USA) in 0.2% BSA and 5% NSS antibody dilution buffer in PBST overnight at 4° C. After washing, the sections were then fixed with 10% neutral buffered formalin for 5 min at RT, washed and incubated in 1:300 dilution of biotinylated sheep anti-mouse IgG (ab6807, Abcam, Mass., USA) and 1:1000 dilution of rabbit anti-laminin (L9393, Sigma-Aldrich, MO, USA) in the antibody dilution buffer for 1 h at RT. Following washes, the tissue sections were then incubated in 1:400 dilution of streptavidin AF488 conjugate and goat anti-rabbit AF594 (Invitrogen, CA, USA) and then washed and mounted with Prolong gold anti-fade mounting medium with DAPI (Invitrogen, CA, USA). Images were obtained at ×10 and ×20 magnifications with the Olympus IX73 inverted microscope using CellSens Standard software (Olympus Soft Imaging Solution, USA) and the MyHC1 positive myofibres were quantified with ImageJ software.

RAW264.7 cells = assay: Morphology and number of activated cells in LPS-induced RAW264.7 macrophage; type: cell-based; conditions: LPS 1 μg/ml + P7C3 1 μM
Protocol: FIGS. 3A-3E show morphology and number of activated cells in LPS-induced RAW264.7 macrophage in vitro. RAW264.7 cells were cultured in complete medium (FIG. 3A) or contained with P7C3 (FIG. 3B, 1 μM), LPS (FIG. 3C, 1 μg/ml), and LPS+P7C3 (FIG. 3D) for […]. The photo was taken under inverted microscopy (Rebel, ECHO) at 20× mag. The elongated and pseudopod shape of cells were considered as activated (yellow star), but the small and round shape of cells was considered as inactivated (yellow arrow). […] The statistical analysis was performed using two-way ANOVA with Tukey's multiple comparisons test in GraphPad Prism 8.4.3, and p≤0.05 was considered statistically significant.

[4] = tibialis anterior, H&E, vs db-Veh
[5] = gastrocnemius muscle, vs db-Veh
[6] = gastrocnemius muscle, vs db-Veh and C57Bl/6J
[7] = gastrocnemius muscle, vs db-Veh and WT

OC(CNc1ccccc1)Cn1c2ccc(Br)cc2c2cc(Br)ccc21 (centres unmarked) [P7C3, 3,6-Dibromo-a-[(phenylamino)methyl]-9H-carbazole-9-ethanol]
SDH positive myofibres (db/db mice [1]; TA muscle, 4 weeks): significantly improved
mitochondria morphology and function (db/db mice [1]; TEM, db/db): improved
myofibre diameter of the extensor digitorum longus muscle (db/db mice [1]; TEM, vs db-Veh): increase
16S expression (mtDNA) (db/db mice [1]; gastrocnemius, vs db-Veh): significantly decreased
medium and larger sized myofibres cross-sectional areas (db/db mice [1]; [4]): increase
small myofibres cross-sectional areas (0-1500 μm^2) (db/db mice [1]; [4]): significant decrease
anti-inflammatory LMs (DHA, HDoHE derivatives, EPA, 5-HEPE) (db/db mice [2]): lowered
pro-inflammatory LMs (arachidonic acid, 11-HETE, 15-HETE) (db/db mice [2]): significantly attenuated
2-arachidonoyl glycerol (2-AG) levels (db/db mice [2]; vs db-Veh): significantly decreased
anandamide (AEA) levels (db/db mice [2]; vs db-Veh and WT): significantly higher
TNFα expression in skeletal muscle (db/db mice [3]; gastrocnemius muscle, db-Veh vs db-P7C3): high levels in db-Veh compared with db-P7C3
CD36 expression (db/db mice [3]; [5]): significantly down-regulated
Fabp1 expression (db/db mice [3]; [5]): significantly down-regulated
Fgf21 expression (db/db mice [3]; [5]): significant reduction
MyHC type 1 (MyHC1) expression levels (db/db mice [3]; [5]): significant de-crease
Cpt1 expression (db/db mice [3]; [6]): significantly up-regulated
Pdk4 expression (db/db mice [3]; [6]): significantly up-regulated
MyHC-2a expression levels (db/db mice [3]; [7]): no significant change
MyHC-2b expression levels (db/db mice [3]; [7]): no significant change
MyHC-2× expression levels (db/db mice [3]; [7]): no significant change
number of MyHC1 positive myofibres (db/db mice [3]; tibialis anterior immunostaining, vs db-Veh): significant decrease
number of activated RAW264.7 cells (RAW264.7 cells; vs LPS): significantly decreased
non-activated RAW264.7 cells (RAW264.7 cells; vs LPS group): significantly higher
